Consider one compound from patent US7456183B2, “Guanidino compounds” (Novartis Vaccines and Diagnostics, Inc., priority 2001, dated 2008).

The target of this experiment is MC4-R (Homo sapiens, UniProt P32245). Put plainly: cAMP Scintillation Proximity Assay in cells expressing MC4-R. Format: cell-based. Particulars: intercellular cAMP measured with SPA kit, read-out: in vitro potency (as measured by EC50 value). Here is the method: EC50 values of test compounds were determined by treating cells expressing MC4-R with test compound and lysing the cells and measuring intercellular cAMP concentration with an Amersham-Pharmacia RPA-559 cAMP Scintillation Proximity Assay (SPA) kit. The following compounds were synthesized and tested according to this assay. The following compounds are merely illustrative and should not be construed as limiting of the instant invention.
Chain of MC4-R (P32245 whole entry, species assumed): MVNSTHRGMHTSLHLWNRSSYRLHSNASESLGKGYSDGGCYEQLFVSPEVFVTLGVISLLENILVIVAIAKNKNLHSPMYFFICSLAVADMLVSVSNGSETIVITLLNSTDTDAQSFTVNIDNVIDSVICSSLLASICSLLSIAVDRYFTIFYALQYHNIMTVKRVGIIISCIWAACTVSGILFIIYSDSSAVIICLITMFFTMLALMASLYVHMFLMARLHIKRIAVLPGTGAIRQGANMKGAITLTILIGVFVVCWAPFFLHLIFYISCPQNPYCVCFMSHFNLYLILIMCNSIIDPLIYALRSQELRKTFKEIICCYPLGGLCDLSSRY
For orientation: SPA uses beads or plates that emit light when radiolabelled molecules are held near them.

Structures are written as SMILES.

Take `C[C@@H]1[C@@H](N=C(Nc2ccc3c(c2)CCN(CCc2ccc(Cl)cc2Cl)C3=O)N2CCN[C@@H](C)C2)C[C@H]2C[C@@H]1C2(C)C` [Example 22, (3S)—N-{2-[2-(2,4-dichlorophenyl)ethyl]-1-oxo-1,2,3,4-tetrahydroisoquinolin-6-yl}-3-methyl-N′-[(1S,2S,5R)-2,6,6-trimethylbicyclo[3.1.1]hept-3-yl]piperazine-1-carboximidamide]: the EC50 was under 3 µM.

As usually defined, the EC50 is the midpoint of the concentration-response curve.
